According to publication PMC7026418, “The kinase polypharmacology landscape of clinical PARP inhibitors” (Scientific Reports, 2020):
Read-outs that look alike come from different tables or passages of the source.

Key:
Assay in all cases: biochemical
Set-up in all cases: DiscoveRx KINOMEscan active site-directed competition binding; percent of control kinase bound to immobilised ligand
ASK2 = target: T1, ASK2 (Homo sapiens, UniProt O95382)
T1 construct: gene MAP3K6
T1 sequence (O95382 1-1288): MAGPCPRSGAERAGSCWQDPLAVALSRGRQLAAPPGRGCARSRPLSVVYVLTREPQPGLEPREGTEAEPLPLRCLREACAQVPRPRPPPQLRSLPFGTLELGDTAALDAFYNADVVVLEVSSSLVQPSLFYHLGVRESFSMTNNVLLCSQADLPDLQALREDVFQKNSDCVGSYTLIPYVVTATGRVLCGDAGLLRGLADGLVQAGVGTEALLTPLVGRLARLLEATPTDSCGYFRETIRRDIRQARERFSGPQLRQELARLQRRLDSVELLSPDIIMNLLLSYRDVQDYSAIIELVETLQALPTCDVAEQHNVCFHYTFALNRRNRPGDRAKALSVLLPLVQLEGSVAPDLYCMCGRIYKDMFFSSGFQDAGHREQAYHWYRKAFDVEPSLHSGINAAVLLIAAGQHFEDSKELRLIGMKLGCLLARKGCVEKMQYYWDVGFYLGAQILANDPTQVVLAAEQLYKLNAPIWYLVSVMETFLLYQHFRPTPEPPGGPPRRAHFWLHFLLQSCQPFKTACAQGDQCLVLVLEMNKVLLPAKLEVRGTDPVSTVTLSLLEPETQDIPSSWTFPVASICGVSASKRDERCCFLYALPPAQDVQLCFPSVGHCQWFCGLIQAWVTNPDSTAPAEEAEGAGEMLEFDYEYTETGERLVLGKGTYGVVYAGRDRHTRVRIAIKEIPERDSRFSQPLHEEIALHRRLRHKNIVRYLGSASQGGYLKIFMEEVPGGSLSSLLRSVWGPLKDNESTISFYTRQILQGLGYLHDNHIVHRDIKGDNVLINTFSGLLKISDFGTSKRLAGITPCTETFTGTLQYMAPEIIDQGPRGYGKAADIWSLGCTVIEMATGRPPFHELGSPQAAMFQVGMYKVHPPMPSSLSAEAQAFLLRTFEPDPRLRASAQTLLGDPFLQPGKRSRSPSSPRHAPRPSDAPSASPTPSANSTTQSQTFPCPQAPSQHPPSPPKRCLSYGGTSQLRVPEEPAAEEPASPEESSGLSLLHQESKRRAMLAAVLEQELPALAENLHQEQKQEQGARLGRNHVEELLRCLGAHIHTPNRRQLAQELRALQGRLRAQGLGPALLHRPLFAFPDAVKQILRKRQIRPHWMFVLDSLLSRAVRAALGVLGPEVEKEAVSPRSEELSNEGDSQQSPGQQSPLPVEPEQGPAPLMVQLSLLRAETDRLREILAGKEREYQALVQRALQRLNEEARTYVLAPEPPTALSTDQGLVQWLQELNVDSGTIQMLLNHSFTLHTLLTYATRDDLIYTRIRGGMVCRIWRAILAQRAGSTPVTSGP

BLK = BLK (Homo sapiens, UniProt P51451)
DRAK2 = target: T2, DRAK2 (Homo sapiens, UniProt O94768)
T2 construct: gene STK17B
T2 sequence (O94768 1-372): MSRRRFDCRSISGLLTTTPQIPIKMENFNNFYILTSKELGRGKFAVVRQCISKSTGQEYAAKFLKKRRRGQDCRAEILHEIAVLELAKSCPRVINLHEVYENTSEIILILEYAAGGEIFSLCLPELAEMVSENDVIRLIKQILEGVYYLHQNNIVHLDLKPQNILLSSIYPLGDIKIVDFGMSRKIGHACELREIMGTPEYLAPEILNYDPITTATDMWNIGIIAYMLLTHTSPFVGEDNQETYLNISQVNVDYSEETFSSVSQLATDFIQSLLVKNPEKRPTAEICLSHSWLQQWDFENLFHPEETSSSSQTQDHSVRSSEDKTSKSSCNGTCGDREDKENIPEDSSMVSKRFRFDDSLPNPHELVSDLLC

ERBB4 = ERBB4 (Homo sapiens, UniProt Q15303)
ITK = target: T3, ITK (Homo sapiens, UniProt Q08881)
T3 sequence (Q08881 1-620): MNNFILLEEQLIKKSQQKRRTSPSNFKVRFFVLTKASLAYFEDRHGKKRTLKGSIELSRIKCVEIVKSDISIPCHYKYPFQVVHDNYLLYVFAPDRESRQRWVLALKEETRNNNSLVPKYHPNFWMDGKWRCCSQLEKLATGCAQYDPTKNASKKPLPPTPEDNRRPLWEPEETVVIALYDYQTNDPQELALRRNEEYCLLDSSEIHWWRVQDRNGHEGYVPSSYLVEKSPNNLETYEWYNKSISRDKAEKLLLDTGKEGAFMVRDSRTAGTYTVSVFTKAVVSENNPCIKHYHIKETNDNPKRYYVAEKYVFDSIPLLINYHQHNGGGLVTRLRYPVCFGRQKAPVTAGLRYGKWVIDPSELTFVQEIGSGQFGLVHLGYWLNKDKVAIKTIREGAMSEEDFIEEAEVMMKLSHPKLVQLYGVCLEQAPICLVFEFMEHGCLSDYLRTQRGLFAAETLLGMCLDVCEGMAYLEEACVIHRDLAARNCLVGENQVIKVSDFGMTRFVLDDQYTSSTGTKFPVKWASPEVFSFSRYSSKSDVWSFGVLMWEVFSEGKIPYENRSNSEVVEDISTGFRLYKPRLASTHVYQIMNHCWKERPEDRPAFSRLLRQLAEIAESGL

LCK = LCK (Homo sapiens, UniProt P06239)
PAK4 = PAK4 (Homo sapiens, UniProt O96013)
PIK3CG = PIK3CG (Homo sapiens, UniProt P48736)
[1] = read-out: Talazoparib (BMN 673) / %Ctrl @ 10000nM
[2] = read-out: Olaparib / %Ctrl @ 10000nM
[3] = read-out: Niraparib (MK-4827) / %Ctrl @ 10000nM
[4] = read-out: Rucaparib / %Ctrl @ 10000nM, binding competition, % of control

LCK, sequence (P06239 whole entry): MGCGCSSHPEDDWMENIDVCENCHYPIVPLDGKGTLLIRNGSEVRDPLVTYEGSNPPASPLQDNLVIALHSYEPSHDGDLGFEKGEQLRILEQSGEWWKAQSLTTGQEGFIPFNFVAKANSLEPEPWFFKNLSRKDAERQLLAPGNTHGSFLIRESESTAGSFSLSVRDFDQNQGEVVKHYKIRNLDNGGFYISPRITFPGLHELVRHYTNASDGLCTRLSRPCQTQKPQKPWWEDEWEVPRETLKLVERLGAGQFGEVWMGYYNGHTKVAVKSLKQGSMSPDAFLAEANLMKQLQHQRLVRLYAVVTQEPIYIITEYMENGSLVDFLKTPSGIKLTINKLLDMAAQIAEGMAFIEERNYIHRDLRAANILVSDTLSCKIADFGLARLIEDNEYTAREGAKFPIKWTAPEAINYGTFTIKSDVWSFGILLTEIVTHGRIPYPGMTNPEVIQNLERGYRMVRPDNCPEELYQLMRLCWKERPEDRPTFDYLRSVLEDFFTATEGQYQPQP
PIK3CG, sequence (P48736 whole entry): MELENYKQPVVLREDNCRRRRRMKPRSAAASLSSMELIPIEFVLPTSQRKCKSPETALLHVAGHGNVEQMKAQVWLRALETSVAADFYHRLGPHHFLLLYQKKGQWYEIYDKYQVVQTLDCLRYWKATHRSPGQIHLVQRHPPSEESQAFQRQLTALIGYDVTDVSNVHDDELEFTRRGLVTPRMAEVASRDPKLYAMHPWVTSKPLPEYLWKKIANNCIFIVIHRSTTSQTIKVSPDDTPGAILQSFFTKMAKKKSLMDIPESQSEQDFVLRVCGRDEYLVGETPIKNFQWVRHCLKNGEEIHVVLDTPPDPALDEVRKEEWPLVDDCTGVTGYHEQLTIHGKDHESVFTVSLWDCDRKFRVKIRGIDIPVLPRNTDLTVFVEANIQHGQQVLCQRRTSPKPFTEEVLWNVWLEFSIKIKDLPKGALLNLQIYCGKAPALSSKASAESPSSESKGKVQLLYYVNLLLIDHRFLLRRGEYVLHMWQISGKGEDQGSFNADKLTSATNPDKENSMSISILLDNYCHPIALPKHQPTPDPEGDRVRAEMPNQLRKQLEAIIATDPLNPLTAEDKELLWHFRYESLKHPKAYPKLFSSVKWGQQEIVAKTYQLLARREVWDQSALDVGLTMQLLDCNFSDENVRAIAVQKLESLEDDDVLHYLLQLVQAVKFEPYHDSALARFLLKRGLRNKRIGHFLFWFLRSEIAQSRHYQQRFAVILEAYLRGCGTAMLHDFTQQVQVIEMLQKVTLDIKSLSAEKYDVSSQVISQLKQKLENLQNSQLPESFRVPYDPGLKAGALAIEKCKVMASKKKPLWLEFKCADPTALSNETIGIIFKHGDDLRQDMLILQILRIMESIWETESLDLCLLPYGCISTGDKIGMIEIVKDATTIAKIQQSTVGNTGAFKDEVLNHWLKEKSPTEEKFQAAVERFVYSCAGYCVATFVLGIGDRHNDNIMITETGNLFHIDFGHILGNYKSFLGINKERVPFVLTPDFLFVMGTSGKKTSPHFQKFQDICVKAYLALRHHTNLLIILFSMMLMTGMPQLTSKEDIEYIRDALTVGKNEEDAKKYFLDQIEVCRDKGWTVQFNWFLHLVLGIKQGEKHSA
PAK4, sequence (O96013 whole entry): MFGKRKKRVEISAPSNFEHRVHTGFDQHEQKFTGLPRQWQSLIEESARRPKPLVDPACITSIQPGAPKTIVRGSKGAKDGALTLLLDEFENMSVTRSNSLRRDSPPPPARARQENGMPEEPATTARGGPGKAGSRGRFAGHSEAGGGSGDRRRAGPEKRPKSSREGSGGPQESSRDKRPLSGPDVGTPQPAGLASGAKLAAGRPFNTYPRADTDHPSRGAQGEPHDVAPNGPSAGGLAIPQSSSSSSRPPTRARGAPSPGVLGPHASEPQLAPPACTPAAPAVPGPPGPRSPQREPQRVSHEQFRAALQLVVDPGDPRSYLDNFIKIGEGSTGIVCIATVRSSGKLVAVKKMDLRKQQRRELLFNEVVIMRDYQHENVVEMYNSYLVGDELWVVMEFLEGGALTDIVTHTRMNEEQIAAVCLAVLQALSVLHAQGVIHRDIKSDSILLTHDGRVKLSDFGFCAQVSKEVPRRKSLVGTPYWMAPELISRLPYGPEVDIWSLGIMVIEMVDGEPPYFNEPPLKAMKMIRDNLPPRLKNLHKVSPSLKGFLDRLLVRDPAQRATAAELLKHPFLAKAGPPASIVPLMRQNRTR
BLK, sequence (P51451 whole entry): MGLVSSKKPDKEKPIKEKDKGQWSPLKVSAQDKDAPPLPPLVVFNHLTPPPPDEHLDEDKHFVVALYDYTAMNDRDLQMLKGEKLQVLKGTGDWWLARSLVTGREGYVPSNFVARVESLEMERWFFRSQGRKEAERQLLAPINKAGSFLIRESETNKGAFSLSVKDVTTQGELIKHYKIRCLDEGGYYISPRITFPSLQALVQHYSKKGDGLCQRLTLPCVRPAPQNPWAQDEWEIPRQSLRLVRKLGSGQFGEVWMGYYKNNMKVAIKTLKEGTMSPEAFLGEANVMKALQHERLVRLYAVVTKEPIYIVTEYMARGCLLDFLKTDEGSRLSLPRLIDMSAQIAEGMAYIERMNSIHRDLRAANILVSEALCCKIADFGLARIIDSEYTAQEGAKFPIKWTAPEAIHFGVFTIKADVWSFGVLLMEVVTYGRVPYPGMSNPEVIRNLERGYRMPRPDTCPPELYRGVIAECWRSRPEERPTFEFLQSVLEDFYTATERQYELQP
ERBB4, sequence (Q15303 whole entry): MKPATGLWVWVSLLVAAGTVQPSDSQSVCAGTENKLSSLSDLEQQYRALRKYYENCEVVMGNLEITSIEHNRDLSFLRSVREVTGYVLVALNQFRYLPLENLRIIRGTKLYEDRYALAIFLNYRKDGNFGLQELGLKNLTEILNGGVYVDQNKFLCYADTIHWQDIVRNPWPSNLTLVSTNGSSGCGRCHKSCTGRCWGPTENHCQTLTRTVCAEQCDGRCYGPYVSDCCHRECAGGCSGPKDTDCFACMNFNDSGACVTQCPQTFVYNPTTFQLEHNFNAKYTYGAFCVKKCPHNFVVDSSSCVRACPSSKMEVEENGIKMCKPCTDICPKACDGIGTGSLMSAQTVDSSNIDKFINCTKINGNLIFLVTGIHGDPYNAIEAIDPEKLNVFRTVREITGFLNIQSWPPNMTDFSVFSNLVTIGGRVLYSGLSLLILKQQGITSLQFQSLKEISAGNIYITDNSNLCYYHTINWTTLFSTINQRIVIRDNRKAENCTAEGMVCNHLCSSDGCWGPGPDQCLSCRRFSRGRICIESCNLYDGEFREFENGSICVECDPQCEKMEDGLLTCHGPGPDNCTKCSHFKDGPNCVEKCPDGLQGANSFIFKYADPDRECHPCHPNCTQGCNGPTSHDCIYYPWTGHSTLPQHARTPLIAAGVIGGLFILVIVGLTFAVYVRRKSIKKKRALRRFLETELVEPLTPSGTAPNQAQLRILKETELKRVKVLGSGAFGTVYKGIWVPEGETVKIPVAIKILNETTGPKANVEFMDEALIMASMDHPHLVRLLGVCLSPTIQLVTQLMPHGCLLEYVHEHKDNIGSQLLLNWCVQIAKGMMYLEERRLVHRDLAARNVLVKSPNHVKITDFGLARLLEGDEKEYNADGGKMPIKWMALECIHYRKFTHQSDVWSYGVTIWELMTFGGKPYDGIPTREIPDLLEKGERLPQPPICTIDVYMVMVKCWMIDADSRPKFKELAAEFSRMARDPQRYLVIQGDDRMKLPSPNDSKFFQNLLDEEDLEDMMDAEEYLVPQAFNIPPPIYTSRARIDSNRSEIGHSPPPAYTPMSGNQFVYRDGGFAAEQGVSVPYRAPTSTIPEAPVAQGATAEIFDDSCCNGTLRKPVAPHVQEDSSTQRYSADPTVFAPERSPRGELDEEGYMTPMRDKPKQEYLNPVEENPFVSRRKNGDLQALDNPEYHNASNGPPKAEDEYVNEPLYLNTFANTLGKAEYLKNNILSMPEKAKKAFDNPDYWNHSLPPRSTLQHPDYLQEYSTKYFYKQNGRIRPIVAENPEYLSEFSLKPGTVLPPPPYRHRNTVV

Q: Which results are given for `Cn1ncnc1[C@H]1c2n[nH]c(=O)c3cc(F)cc(c23)N[C@@H]1c1ccc(F)cc1` [Talazoparib]?
A: percent of control binding at 10 µM (ASK2; [1]): 85%; percent of control binding at 10 µM (BLK; [1]): 99%; percent of control binding at 10 µM (DRAK2; [1]): 100%; percent of control binding at 10 µM (ERBB4; [1]): 91%; percent of control binding at 10 µM (ITK; [1]): 84%; percent of control binding at 10 µM (LCK; [1]): 90%; percent of control binding at 10 µM (PAK4; [1]): 89%; percent of control binding at 10 µM (PIK3CG; [1]): 62%

Q: `O=C(c1cc(Cc2n[nH]c(=O)c3ccccc23)ccc1F)N1CCN(C(=O)C2CC2)CC1` [Olaparib] was tested. Which percent of control binding at 10 µM (ASK2; [2]) did it give?
A: 80%

Q: What about the percent of control binding at 10 µM (BLK; [2]) of the same compound?
A: 90%

Q: What about the percent of control binding at 10 µM (DRAK2; [2]) of the same compound?
A: 69%

Q: What about the percent of control binding at 10 µM (ERBB4; [2]) of the same compound?
A: 89%

Q: What about the percent of control binding at 10 µM (ITK; [2]) of the same compound?
A: 100%

Q: And the percent of control binding at 10 µM (LCK; [2])?
A: 100%

Q: And the percent of control binding at 10 µM (PAK4; [2])?
A: 100%

Q: What about the percent of control binding at 10 µM (PIK3CG; [2]) of the same compound?
A: 89%

Q: For `NC(=O)c1cccc2cn(-c3ccc([C@@H]4CCCNC4)cc3)nc12` [Niraparib], which percent of control binding at 10 µM (ASK2; [3]) is on record?
A: 98%

Q: What about the percent of control binding at 10 µM (BLK; [3]) of the same compound?
A: 72%

Q: What about the percent of control binding at 10 µM (DRAK2; [3]) of the same compound?
A: 82%

Q: What about the percent of control binding at 10 µM (ERBB4; [3]) of the same compound?
A: 99%

Q: What about the percent of control binding at 10 µM (ITK; [3]) of the same compound?
A: 91%

Q: What about the percent of control binding at 10 µM (LCK; [3]) of the same compound?
A: 82%

Q: And the percent of control binding at 10 µM (PAK4; [3])?
A: 88%

Q: What about the percent of control binding at 10 µM (PIK3CG; [3]) of the same compound?
A: 100%

Q: Which results are given for `CNCc1ccc(-c2[nH]c3cc(F)cc4c3c2CCNC4=O)cc1` [Rucaparib]?
A: percent of control binding at 10 µM (ASK2; [4]): 77%; percent of control binding at 10 µM (BLK; [4]): 91%; percent of control binding at 10 µM (DRAK2; [4]): 98%; percent of control binding at 10 µM (ERBB4; [4]): 89%; percent of control binding at 10 µM (ITK; [4]): 100%; percent of control binding at 10 µM (LCK; [4]): 95%; percent of control binding at 10 µM (PAK4; [4]): 80%; percent of control binding at 10 µM (PIK3CG; [4]): 88%
